This is an account of results in patent publication US5569670A, “Combination medications containing alpha-lipoic acid and related” (Asta Medica Aktiengesellschaft, priority 1992, dated 1996).

Like-named read-outs stand apart in the source and are kept apart here.

The conditions of data set [1]: cited from earlier work.
Data set [2] in a line: in vivo. The note with it: mouse, in vivo.
Data set [3] is described as follows: in vivo. The note with it: rat, in vivo.
The test system of the next data set is mouse. As to the kind of experiment: in vivo.
The subject of a further data set is rat. The experiment in a line: in vivo.
The conditions of data set [4]: cited from earlier work. This is another data set of the same source.
[5] abbreviates: po, oral administration, LITCHFIELD and WILCOXON method, read-out: acute toxicity LD50.

What is called LD50 is the dose at which mortality reaches 50%. Turning to `O=C(O)CCCC[C@H]1CCSS1` [S-alpha-lipoic acid], the “predominant effect of the enantiomer (antinociceptive)” value in data set [1] (in vivo) is “predominantly antinociceptive effect”. In addition, in data set [1] (up to x times stronger than the racemate), the “antinociceptive (analgesic) effect relative to the racemate” value is recorded as “up to 6 times”. Moreover, the LD50 in the data set “in vivo [2]” (setting [5]) was greater than 1000 mg/kg.
For the compound `O=C(O)CCCCC1CCSS1` (racemic) [alpha-lipoic acid (racemate), 1,2-dithia-cyclopentane-3-valeric acid], the LD50 in the data set “in vivo [2]” (po, female, read-out: LD50) is 460 mg/kg; in the data set “in vivo [2]” (po, male, read-out: LD50), 502 mg/kg; in “in vivo [3]” (po, female) it was 1210 mg/kg; in “in vivo [3]” (po, male) it was 1190 mg/kg.
As to Vitamin B6, the LD50 in the data set with mouse (i.v.) was 1020 mg/kg; with mouse (p.o.), 8400 mg/kg; with rat (i.v.) it was 1450 mg/kg; in the data set on rat (p.o.) it was 5500 to 15900 mg/kg.
For `O=C(O)CCCC[C@@H]1CCSS1` [R-alpha-lipoic acid], the “predominant effect of the enantiomer (anti-inflammatory)” value in data set [4] (in vivo) is on record as “predominantly anti-inflammatory effect”. Moreover, the “anti-inflammatory effect relative to the racemate” value in data set [4] (x times stronger than the racemate) is 10 times. Besides, in the data set “in vivo [2]” (setting [5]), the LD50 is greater than 1000 mg/kg.
For `O=C1O[C@H]([C@@H](O)CO)C(O)=C1O` [Vitamin C, ascorbic acid], the LD50 in the data set “in vivo [2]” (iv, read-out: LD50) is 1060 mg/kg; in the data set “in vivo [2]” (po, read-out: LD50), 8020 mg/kg; in the data set “in vivo [3]” (iv) it was 1000 mg/kg; in “in vivo [3]” (po), greater than 5000 mg/kg.
